Results as given in patent US9326956B2, “Methods for improving brain development and cognitive function using beta-hydroxy-beta methylbutyrate” (Abbott Laboratories, priority 2011, dated 2016).

Columns and labels:
Neuro-2A cells = experiment: Rate of protein synthesis, incorporation of [3H]-tyrosine into cellular protein pool; assay type: cell-based; conditions: HMB vs. Control, FIG. 4
Method: The effect of HMB on the rate of protein synthesis in Neuro-2A cells was determined by measuring the incorporation of [3H]-tyrosine into cellular protein pool. The phosphorylative status of mTOR and up/down-protein kinases (Akt, ERK 1/2) was determined by western blot. The cell proliferation/viability was determined with the MTT (3-(4,5-dimethylthiazol-2-yl)-2,5-diphenyltetrazolium bromide) colorimetric assay. Data are expressed as mean±SEM. Student t-test was used to analyze the results.

[1] = HMB concentration over time in brain interstitial fluid (hippocampus microdialysis) after oral administration; assay type: in vivo, Sprague-Dawley rats
Method: In this Example, the appearance of HMB and its concentration over time in brain interstitial fluid were analyzed after oral administration of HMB.
Initially, Sprague-Dawley rats (Charles River, France) weighing 400-500 g were housed in cages at constant room temperature (22±2° C.) and 45-55% humidity under a regular 12-hour light/dark schedule. Food and water were freely available. Procedures involving animals and their care were conducted in conformity with the institutional guidelines that are in compliance with national laws and EC policies for the Care and Use of Laboratory Animals (RD 2101-2005, 86/609/CEE).
A guide cannula was stereotaxically inserted into the hippocampus area of each anesthetized rat at the coordinates described in a stereotaxic atlas for rats. The rats were allowed to recover from surgery for at least three days. On the first day of the experiment, a brain microdialysis probe (MD-2204, BR-4, 4 mm membrane, available from BASi, West Lafayette, Ind.) was inserted into the guide cannula of each rat. The probe was perfused with Ringer's solution (aCFS Harvard apparatus, #597316) at a constant rate of 2 μl/min. The rat was left in the cage with space for relatively free movement. Samples of dialysate were automatically collected every twenty minutes. A bolus dose of HMB (250 mg/kg body weight) was given by gavage 100 min after starting the experiment and sampling was continued for another 160-220 min.
HMB was measured using UPLC-MS. Specifically, samples of 30-40 μl in aCSF were microfiltered through a 0.2 μm nylon filter, diluted with an equal amount of water, and then injected into the UPLC-TQD (Acuity-TQD system available from Waters Corporation, Milford, Mass.). HMB was analyzed using a BEH Hillic column 1.7 μm; 2.1×150 mm using a gradient consisting of H2O:MeCN 0.1% formic acid. The mass spectrometer was set to Ion Mode ES+.

[2] = system: MEF2 transcription factor; experiment: MEF2-dependent transcription luciferase activity (pGL3-4xMEF transfection); assay type: cell-based; conditions: Neuro 2A cells; inhibitor added with HMB; FIGS. 5B-5D
Method: For the transfection experiments in this Example, Neuro-2A cells were used at 80-90% confluence grown in Dulbecco's Modified Eagle's medium (DMEM). Cells were exposed for 5 hours to plasmid pGL3-4×MEF, which contains 4 copies in tandem of the MEF2D binding DNA sequence prior to the sequence of DNA which codes for firefly luciferase. Effectors were added to the medium for 18 h and luciferase activity was determined. For the study of inhibition of signaling factors, inhibitors of the phosphatidyl-inositol 3 kinase (LY294002), ERK 1/2 (PD98059) and mTORC1 activations (rapamycin) were added to the cells.
Data are expressed as mean±SEM. Student t-test was used to analyze the results.

Row | crossing of the blood brain barrier ([1]; oral administration, microdialysis model in rats) | maximum concentration of HMB measured in brain microdialysates ([1]; rat 1, 250 mg/kg bolus by gavage) [ppm] | time after administration at which HMB appeared in the brain ([1]; rat 1, 250 mg/kg bolus by gavage, brain microdialysate (fraction 7)) [min] | HMB concentration level at end of sampling ([1]; rat 1, more than 2.5 hours after the gavage) | maximum concentration of HMB in brain microdialysates ([1]; rat 2, 250 mg/kg bolus by gavage) | fraction in which HMB was detected for the first time ([1]; rat 2, 250 mg/kg by gavage at fraction 5, 20 min fractions) | HMB concentration level at end of experiment ([1]; rat 2, more than 3.5 h after the gavage) | effect of inhibitor on the HMB-mediated increase in MEF2 [2] | Compound | increase on the protein synthesis (Neuro-2A cells) [%]
1 | able to cross the blood brain barrier | 10.5 | 40 | had not decreased | more than 4 ppm | fraction 7 | had not yet reached basal level | – | CC(C)(O)CC(=O)O [HMB, beta-hydroxy-beta-methylbutyrate] | 20
2 | – | – | – | – | – | – | – | totally blocked | COc1cccc(-c2cc(=O)c3ccccc3o2)c1N [PD98059] | –
